Legend:
human GpA TM domain [1] = target: T1, human GpA TM domain (Homo sapiens, UniProt P02724); assay: Steady-state FRET, GpA TM helix dimer dissociation upon addition of SDS (mixed A8-35/SDS aggregates); assay type: binding
T1 construct: purchased Peptide Specialty Laboratories, Heidelberg, Germany; host or cells: chemical synthesis (custom peptide)
T1 sequence (P02724 88-120 limits assumed) 1: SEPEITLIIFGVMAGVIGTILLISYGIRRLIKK
T1 sequence (P02724 88-120 limits assumed) 2: T1 sequence (P02724 88-120 limits assumed) 1
Procedure: (§1) For Förster resonance energy transfer (FRET) measurements, equal concentrations of FL- and TAMRA-labeled GpA TM domains were used. Concentrations of the peptide stock solutions were determined from absorbance measurements on a Perkin Elmer Lambda 35 UV/VIS spectrophotometer. In all experiments, we used 0.25 µM for each of the two labeled GpA peptides. Peptides dissolved in TFE and A8-35 dissolved in ethanol were mixed, and organic solvents were removed under a gentle stream of nitrogen gas. Residual solvent traces were removed by vacuum desiccation overnight. The dried peptide/polymer film was then hydrated in 10 mM HEPES buffer (pH 7.4) containing 150 mM NaCl.
(§2) After at least 2 h of incubation at 37°C and 10 min of centrifugation at 16,000 g, steady-state fluorescence measurements were performed with the supernatant at 25°C on a Horiba Fluoromax 4 system with both excitation and emission slits at 3 nm. The excitation wavelength was set at 439 nm, and emission spectra were recorded from 480 to 650 nm. For FRET measurements with SDS, several concentrations of SDS, both below and above the CMC determined for the given buffer conditions, were used, and hydrated samples were incubated overnight.
Energy transfer E was calculated using the donor fluorescence intensities at 525 nm in presence and absence of acceptor according to [drawing 1] (1)
FD is the fluorescence intensity of the donor sample, and FDA is the fluorescence intensity of the sample containing donor and acceptor GpA TM domains at equal concentrations. The energy transfer of sequence-specific TM helix dimerization, ED, can be expressed as: [drawing 2] (2) where f D is the fraction of dimeric TM helices, P D is the probability of donor quenching when the peptides form a dimer, and E R is the energy transfer in the dimer.
The probability P D of donor quenching depends on the molar ratio of the acceptor peptides [drawing 3] , where [a] and [d] are the concentrations of acceptor and donor peptides, respectively. If the distance of the fluorophores in the dimer is much smaller than the Förster radius, as is the case here, ER can be taken as unity.
The fraction of dimers can be written as [drawing 4] , where [D] is the concentration of dimeric peptides and [T] the total peptide concentration.
The dissociation constant, K D, is given by [drawing 6] (4) where the monomer concentration is [drawing 7] .
This indicates a strong destabilization of the GpA dimer after addition of SDS, resulting in dissociation of GpA TM dimers in mixed A8-35/SDS aggregates. […]
Figure 6 Dissociation of the GpA TM domain in APol upon addition of SDS. […] SDS was added to preformed APol/GpA complexes, and emission spectra were recorded at 25°C after incubation at 37°C. […]

GpA TM dimer = conditions: SDS, DDMAB, DPC, lyso-PC, ref [26]-[28], cited from earlier work
human GpA TM domain [2] = target: T1, human GpA TM domain; assay: Reversibility of SDS-mediated GpA dimer dissociation, FRET after dilution of SDS; assay type: binding; conditions: n = 3
Procedure: as §1
as §2, with “overnight. […]” for “overnight.”

[3] = Far-UV circular dichroism, secondary structure content of GpA TM domain; assay type: physicochemical; conditions: 25°C; for α-helix content: unlabeled GpA peptide 5 µM, DICHROWEB CDSSTR, reference set 7, at least three averaged scans
Procedure: CD spectra were recorded on a Jasco J-815 spectropolarimeter at 25°C in a step-scan mode using 0.1-cm path length quartz cells from Hellma (Mülheim, Germany). The concentration of unlabeled GpA peptide was 5 µM. Data points were collected at a resolution of 1 nm, an integration time of 1 s, and a bandwidth of 1 nm. Each shown spectrum results from at least three averaged scans from which buffer scans were subtracted. The measured ellipticity θ was converted to molar ellipticity [θ] by: [drawing 8] (5) where M is the molar mass, L the path length, and C the peptide concentration.
The GpA TM domain was reconstituted in 10 mM phosphate buffer (pH 7.4) containing A8-35 as well as in several solvents containing SDS, DDM, or pure TFE, which are known to stabilize α-helical structures. Prior to CD measurements, samples were treated in the same way as described above for FRET measurements. Secondary structure contents were estimated with the DICHROWEB software, [31] using both soluble and TM proteins as reference datasets (CDSSTR method, reference set 7).

Compound: CC[C@H](C)[C@H](NC(=O)CNC(=O)[C@H](Cc1ccc(O)cc1)NC(=O)[C@H](CO)NC(=O)[C@@H](NC(=O)[C@H](CC(C)C)NC(=O)[C@H](CC(C)C)NC(=O)[C@@H](NC(=O)[C@@H](NC(=O)CNC(=O)[C@@H](NC(=O)[C@@H](NC(=O)CNC(=O)[C@H](C)NC(=O)[C@H](CCSC)NC(=O)[C@@H](NC(=O)CNC(=O)[C@H](Cc1ccccc1)NC(=O)[C@@H](NC(=O)[C@@H](NC(=O)[C@H](CC(C)C)NC(=O)[C@@H](NC(=O)[C@@H](NC(=O)[C@H](CCC(=O)O)NC(=O)[C@@H]1CCCN1C(=O)[C@H](CCC(=O)O)NC(=O)[C@@H](N)CO)[C@@H](C)CC)[C@@H](C)O)[C@@H](C)CC)[C@@H](C)CC)C(C)C)C(C)C)[C@@H](C)CC)[C@@H](C)O)[C@@H](C)CC)[C@@H](C)CC)C(=O)N[C@@H](CCCNC(=N)N)C(=O)N[C@@H](CCCNC(=N)N)C(=O)N[C@@H](CC(C)C)C(=O)N[C@H](C(=O)N[C@@H](CCCCN)C(=O)N[C@@H](CCCCN)C(=O)O)[C@@H](C)CC [GpA TM domain]
- complete unfolding of GpA dimer in APol/SDS mixed micelles (human GpA TM domain [1]; 20 µM A8-35 with SDS, analyzed concentration range, compared with DDM/SDS): not observed in case of APol/SDS mixed micelles
- fraction of dimeric GpA (human GpA TM domain [1]; SDS exceeding 1.5 mM, 20 µM A8-35, 0.5 µM labeled GpA TM domain, 25°C, n = 3): about 0.3
- increase in the dissociation constant upon SDS addition (human GpA TM domain [1]; no SDS vs SDS exceeding 1.5 mM, 20 µM A8-35, 0.5 µM labeled GpA TM domain, 25°C, n = 3): about one order of magnitude
- fraction of dimeric GpA (human GpA TM domain [1]; no SDS, 20 µM A8-35, 0.5 µM labeled GpA TM domain, 25°C, n = 3): 0.7
- dissociation constants of the GpA TM dimer upon further addition of detergent (GpA TM dimer; compared to A8-35): increase significantly
- Kd (GpA TM dimer; read-out: dissociation constants of the GpA TM dimer in detergents, low detergent concentrations): ≤ 500 nM
- reversibility of dissociation and association of GpA TM helix (human GpA TM domain [2]; 2 mM SDS diluted to 0.4 mM SDS, constant 20 µM A8-35 and peptide): fully reversible
- fraction dimer after dilution from higher SDS concentration (human GpA TM domain [2]; 2 mM SDS sample diluted to 0.4 mM SDS, 20 µM A8-35): comparable to that observed at 0.4 mM SDS
- α-helix content ([3]; 5 µM A8-35, 10 mM phosphate buffer pH 7.4): 67%
- effect of higher APol concentrations on peptide's secondary structure ([3]; A8-35 concentrations above 5 µM, CD, 5 µM peptide): did not significantly affect the peptide's secondary structure
- α-helix content ([3]; in 5 mM DDM): 79%
- α-helix content ([3]; in 5 mM SDS): 76%
- α-helix content ([3]; in TFE (pure)): 62%
